For assay [1], the system named is MDA-MB-231, human breast cancer cells. The assay can be described thus: Proliferation assay MDA-MB-231 (crystal violet, 4 days). In kind it is cell-based. The conditions noted are these: Homo sapiens, MDA-MB-231, 96 h, MDA-MB-231 cells, median, read-out: Prolif-MDA MB-231, IC50-[mol/l] (median). The protocol:
Human tumour cells were originally obtained from the American Type Culture Collection (ATCC), or from the Deutsche Sammlung von Mikroorganismen und Zellkulturen (DSMZ, German Collection of Microorganisms and Cell Cultures). Cultivated tumour cells (CAL-120, human breast adenocarcinoma cells, DSMZ ACC-459; MDA-MB-231, human breast cancer cells, ATCC HTB-26) were plated at a density of 4,000 cells/well in a 96-well multititer plate in 200 microL of their respective growth medium supplemented 10% fetal calf serum. After 24 hours, the cells of one plate (zero-point plate) were stained with crystal violet (see below), while the medium of the other plates was supplemented with the test substances in various concentrations (0 micromol/L, as well as in the range of 0.01-10 micromol/L; the final concentration of the solvent dimethyl sulfoxide was adjusted to 0.1%) using a Tecan HP D300 Digital Dispenser. The cells were incubated for 4 days in the presence of test substances. Cell proliferation was determined by staining the cells with crystal violet: the cells were fixed by adding 20 microL/measuring point of an 11% glutaric aldehyde solution for 15 minutes at room temperature. After three washing cycles of the fixed cells with water, the plates were dried at room temperature. The cells were stained by adding 100 microL/measuring point of a 0.1% crystal violet solution (pH 3.0). After three washing cycles of the stained cells with water, the plates were dried at room temperature. The dye was dissolved by adding 100 microL/measuring point of a 10% acetic acid solution. The extinction was determined by photometry at a wavelength of 595 nm. The change of cell number, in percent, was calculated by normalization of the measured values to the extinction values of the zero-point plate (=0%) and the extinction of the untreated (0 μM) cells (=100%). The IC50 values (inhibitory concentration at 50% of maximal effect) were determined by means of a 4 parameter fit.

For assay [2], the target named is T1, CDK9/CycT1 (Homo sapiens, UniProt P50750).
T1 construct: Recombinant full-length His-tagged human CDK9 and CycT1; purchased Life Technologies PV4131; host or cells: insect cells
T1 sequence (P50750 whole entry): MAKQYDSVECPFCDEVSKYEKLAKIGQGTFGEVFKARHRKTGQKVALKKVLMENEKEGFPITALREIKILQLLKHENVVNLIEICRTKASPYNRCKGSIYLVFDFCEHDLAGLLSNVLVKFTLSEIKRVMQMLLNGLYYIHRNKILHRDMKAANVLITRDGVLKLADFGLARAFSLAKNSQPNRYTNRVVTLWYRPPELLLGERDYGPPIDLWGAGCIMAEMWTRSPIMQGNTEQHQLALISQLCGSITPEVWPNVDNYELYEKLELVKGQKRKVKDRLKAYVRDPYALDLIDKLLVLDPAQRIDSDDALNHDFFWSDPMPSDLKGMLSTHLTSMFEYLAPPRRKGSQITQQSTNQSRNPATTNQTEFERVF
T1 sequence (O60563 whole entry partner): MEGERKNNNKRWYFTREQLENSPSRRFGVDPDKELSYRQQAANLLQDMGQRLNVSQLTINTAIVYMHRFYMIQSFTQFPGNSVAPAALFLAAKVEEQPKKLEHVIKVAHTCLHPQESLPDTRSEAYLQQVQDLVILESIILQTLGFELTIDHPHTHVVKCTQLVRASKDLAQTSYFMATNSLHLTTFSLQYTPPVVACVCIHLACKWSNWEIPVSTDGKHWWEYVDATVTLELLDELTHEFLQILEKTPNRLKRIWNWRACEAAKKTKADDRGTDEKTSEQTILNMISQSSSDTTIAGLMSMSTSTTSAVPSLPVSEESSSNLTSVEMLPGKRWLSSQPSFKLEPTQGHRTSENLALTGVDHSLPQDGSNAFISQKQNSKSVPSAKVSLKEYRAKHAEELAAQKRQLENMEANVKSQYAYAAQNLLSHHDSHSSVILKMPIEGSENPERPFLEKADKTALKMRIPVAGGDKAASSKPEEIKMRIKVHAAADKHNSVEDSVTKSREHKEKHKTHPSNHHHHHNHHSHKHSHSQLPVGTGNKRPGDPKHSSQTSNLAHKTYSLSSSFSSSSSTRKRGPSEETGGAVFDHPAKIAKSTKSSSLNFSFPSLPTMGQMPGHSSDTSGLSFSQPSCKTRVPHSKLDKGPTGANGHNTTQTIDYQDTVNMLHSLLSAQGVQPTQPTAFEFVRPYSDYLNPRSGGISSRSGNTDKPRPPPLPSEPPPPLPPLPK
The assay can be described thus: CDK9/CycT1 high ATP kinase assay (TR-FRET, 2 mM ATP). The conditions noted are these: 2 mM ATP (high ATP); median; read-out: CDK9/CyclinT1, 2 mM ATP (high ATP), IC50 (median). Type of assay: biochemical. Here is the method: CDK9/CycT1-inhibitory activity of compounds of the present invention at a high ATP concentration after preincubation of enzyme and test compounds was quantified employing the CDK9/CycT1 TR-FRET assay as described in the following paragraphs.
Recombinant full-length His-tagged human CDK9 and CycT1, expressed in insect cells and purified by Ni-NTA affinity chromatography, were purchased from Life Technologies (Cat. No PV4131). As substrate for the kinase reaction biotinylated peptide biotin-Ttds-[…] (C-terminus in amide form) was used which can be purchased e.g. form the company JERINI peptide technologies (Berlin, Germany).
For the assay 50 nanoL of a 100 fold concentrated solution of the test compound in DMSO was pipetted into either a black low volume 384 well microtiter plate or a black 1536 well microtiter plate (both Greiner Bio-One, Frickenhausen, Germany), 2 microL of a solution of CDK9/CycT1 in aqueous assay buffer [50 millimol/L Tris/HCl pH 8.0, 10 millimol/L MgCl2, 1.0 millimol/L dithiothreitol, 0.1 millimol/L sodium ortho-vanadate, 0.01% (v/v) Nonidet-P40 (Sigma)] were added and the mixture was incubated for 15 min at 22° C. to allow pre-binding of the test compounds to the enzyme before the start of the kinase reaction. […] The concentration of CDK9/CycT1 was adjusted depending of the activity of the enzyme lot and was chosen appropriate to have the assay in the linear range, typical concentrations were in the range of 0.5 microg/ml.
The resulting mixture was incubated 1 h at 22° C. to allow the formation of complex between the phosphorylated biotinylated peptide and the detection reagents. Subsequently the amount of phosphorylated substrate was evaluated by measurement of the resonance energy transfer from the Eu-chelate to the streptavidine-XL. Therefore, the fluorescence emissions at 620 nm and 665 nm after excitation at 350 nm was measured in a TR-FRET reader, e.g. a Pherastar (BMG Labtechnologies, Offenburg, Germany) or a Viewlux (Perkin-Elmer). The ratio of the emissions at 665 nm and at […] was taken as the measure for the amount of phosphorylated substrate.

Among the data in patent US20230117034A1, “PYRAZOLOTRIAZINES” (Bayer Aktiengesellschaft, priority 2019, published 2023) are IC50 values, retold here.

Molecules are shown by their SMILES. Where only a bound is given, the exact number is not on record here.

Turning to `COc1ccc2[nH]c(CNc3nc(N4CCOCC4)nc4c(Br)cnn34)nc2c1` [Example 160, 8-bromo-N-[(5-methoxy-1H-benzimidazol-2-yl)methyl]-2-(morpholin-4-yl)pyrazolo[1,5-a][1,3,5]triazin-4-amine], the IC50 is 9.22 nM in assay [1] and over 20000 nM in assay [2].
For `CN1CCN(c2nc(NCc3nc4c(F)c(F)ccc4[nH]3)n3ncc(Br)c3n2)CC1` [Example 133, 8-bromo-N-[(4,5-difluoro-1H-benzimidazol-2-yl)methyl]-2-(4-methylpiperazin-1-yl)pyrazolo[1,5-a][1,3,5]triazin-4-amine] the same measures were 4.94 nM and over 20000 nM.
For `C[C@H]1CN(c2nc(NCc3nc4ccccc4[nH]3)n3ncc(Br)c3n2)CCN1C` [Example 132, N-[(1H-benzimidazol-2-yl)methyl]-8-bromo-2-[(3S)-3,4-dimethylpiperazin-1-yl]pyrazolo[1,5-a][1,3,5]triazin-4-amine] the same measures were 43 nM and over 20000 nM.
For `Clc1ccc2[nH]c(CNc3nc(N4CCOCC4)nc4c(Br)cnn34)nc2c1` [Example 162, 8-bromo-N-[(5-chloro-1H-benzimidazol-2-yl)methyl]-2-(morpholin-4-yl)pyrazolo[1,5-a][1,3,5]triazin-4-amine] the same measures were 4.02 nM and 17400 nM.
On to `C[C@@H]1CCCCN1c1nc(NCc2nc3ccccc3[nH]2)n2ncc(Br)c2n1` [Example 140, N-[(1H-benzimidazol-2-yl)methyl]-8-bromo-2-[(2R)-2-methylpiperidin-1-yl]pyrazolo[1,5-a][1,3,5]triazin-4-amine], for which the IC50 in assay [1] is 315 nM; in assay [2], over 20000 nM.
For `Cc1cccc2[nH]c(CNc3nc(N4CCN(C)CC4)nc4c(Br)cnn34)nc12` [Example 151, 8-bromo-N-[(4-methyl-1H-benzimidazol-2-yl)methyl]-2-(4-methylpiperazin-1-yl)pyrazolo[1,5-a][1,3,5]triazin-4-amine] the same measures were 37.2 nM and over 20000 nM.
For `CC(C)c1cnn2c(NCc3nc4ccccc4[nH]3)nc(N3CC4(COC4)C3)nc12` [Example 9, N-[(1H-benzimidazol-2-yl)methyl]-2-(2-oxa-6-azaspiro[3.3]heptan-6-yl)-8-(propan-2-yl)pyrazolo[1,5-a][1,3,5]triazin-4-amine] the same measures were 1180 nM and over 20000 nM.
For `Brc1cnn2c(NCc3nc4ccccc4[nH]3)nc(N3CCN(C4CC4)CC3)nc12` [Example 138, N-[(1H-benzimidazol-2-yl)methyl]-8-bromo-2-(4-cyclopropylpiperazin-1-yl)pyrazolo[1,5-a][1,3,5]triazin-4-amine] the same measures were 556 nM and over 20000 nM.
With `C[C@@H]1CN(c2nc(NCc3nc4ccccc4[nH]3)n3ncc(Br)c3n2)CCN1C` [Example 135, N-[(1H-benzimidazol-2-yl)methyl]-8-bromo-2-[(3R)-3,4-dimethylpiperazin-1-yl]pyrazolo[1,5-a][1,3,5]triazin-4-amine], the IC50 was 44 nM in assay [1] and over 20000 nM in assay [2].
As for `FC(F)(F)CN1CCN(c2nc(NCc3nc4ccccc4[nH]3)n3ncc(Br)c3n2)CC1` [Example 139, N-[(1H-benzimidazol-2-yl)methyl]-8-bromo-2-[4-(2,2,2-trifluoroethyl)piperazin-1-yl]pyrazolo[1,5-a][1,3,5]triazin-4-amine], the IC50 is 539 nM in assay [1] and over 20000 nM in assay [2].
For `CN1CCN(c2nc(NCc3nc4c(F)c(F)ccc4[nH]3)n3ncc(C4CC4)c3n2)CC1` [Example 159, 8-cyclopropyl-N-[(4,5-difluoro-1H-benzimidazol-2-yl)methyl]-2-(4-methylpiperazin-1-yl)pyrazolo[1,5-a][1,3,5]triazin-4-amine] the same measures were 9.25 nM and over 20000 nM.
`C[C@H]1CN(c2nc(NCc3nnc(-c4cccc(F)c4)[nH]3)n3ncc(Br)c3n2)CCN1C` [Example 154, 8-bromo-2-[(3S)-3,4-dimethylpiperazin-1-yl]-N-{[5-(3-fluorophenyl)-4H-1,2,4-triazol-3-yl]methyl}pyrazolo[1,5-a][1,3,5]triazin-4-amine]: the results for the IC50 in assay [1] and in assay [2] were 26.2 nM and 2560 nM, respectively.
As for `OCC1CCN1c1nc(NCc2nc3ccccc3[nH]2)n2ncc(Br)c2n1` (stereo not shown) [Example 147, [1-[4-(1H-benzimidazol-2-ylmethylamino)-8-bromo-pyrazolo[1,5-a][1,3,5]triazin-2-yl]azetidin-2-yl]methanol], the IC50 in assay [1] was 317 nM; in assay [2], over 20000 nM.
For `CN1CCN(c2nc(NCc3nnc(-c4cccc(F)c4)[nH]3)n3ncc(Br)c3n2)CC1` [Example 136, 8-bromo-N-{[5-(3-fluorophenyl)-4H-1,2,4-triazol-3-yl]methyl}-2-(4-methylpiperazin-1-yl)pyrazolo[1,5-a][1,3,5]triazin-4-amine] the same measures were 26.4 nM and 1420 nM.
For `Fc1cccc(-c2nnc(CNc3nc(N4C[C@H]5C[C@@H]4CO5)nc4c(Br)cnn34)[nH]2)c1` [Example 153, 8-bromo-N-{[5-(3-fluorophenyl)-4H-1,2,4-triazol-3-yl]methyl}-2-[(1R,4R)-2-oxa-5-azabicyclo[2.2.1]heptan-5-yl]pyrazolo[1,5-a][1,3,5]triazin-4-amine] the same measures were 24.4 nM and 1230 nM.
For `Cc1ccc2[nH]c(CNc3nc(N4CCN(C)CC4)nc4c(Br)cnn34)nc2c1` [Example 158, 8-bromo-N-[(5-methyl-1H-benzimidazol-2-yl)methyl]-2-(4-methylpiperazin-1-yl)pyrazolo[1,5-a][1,3,5]triazin-4-amine] the same measures were 4.24 nM and over 20000 nM.
`Fc1cccc(-c2nnc(CNc3nc(N4CCNCC4)nc4c(Br)cnn34)[nH]2)c1` [Example 152, 8-bromo-N-{[5-(3-fluorophenyl)-4H-1,2,4-triazol-3-yl]methyl}-2-(piperazin-1-yl)pyrazolo[1,5-a][1,3,5]triazin-4-amine]: the IC50 was 12.7 nM in assay [1] and 1990 nM in assay [2].
For `[O-][S+]1CCN(c2nc(NCc3nc4ccccc4[nH]3)n3ncc(Br)c3n2)CC1` [Example 144, 4-(4-{[(1H-benzimidazol-2-yl)methyl]amino}-8-bromopyrazolo[1,5-a][1,3,5]triazin-2-yl)-1lambda^4-thiomorpholin-1-one] the same measures were 185 nM and over 20000 nM.
Regarding `Brc1cnn2c(NCc3nc4ccccc4[nH]3)nc(N3CCN4CCC[C@@H]4C3)nc12` [Example 149, N-[(1H-benzimidazol-2-yl)methyl]-8-bromo-2-[(8aR)-hexahydropyrrolo[1,2-a]pyrazin-2 (1 H)-yl]pyrazolo[1,5-a][1,3,5]triazin-4-amine], the figures for the IC50 in assay [1] and in assay [2] were 276 nM and over 20000 nM, respectively.
For `Cc1cccc2[nH]c(CNc3nc(N4CCOCC4)nc4c(Br)cnn34)nc12` [Example 150, 8-bromo-N-[(4-methyl-1H-benzimidazol-2-yl)methyl]-2-(morpholin-4-yl)pyrazolo[1,5-a][1,3,5]triazin-4-amine] the same measures were 38.9 nM and over 20000 nM.
